Results: patent US4539333A, “Prostacyclin, methods of using and method of making” (Burroughs Wellcome Co., priority 1976, dated 1985)

Experiments:
[1] = system: strips of coronary artery from the ox; test: Relaxation of spirally cut strips of coronary artery; conditions: dose dependent effect
Protocol: The effect is dose dependent and relaxation can be seen with doses as low as 20 nanograms per 5 ml bath.

[2] = Stability of Prostacyclin and of its anti-aggregatory activity (aqueous medium, storage); type: physicochemical
Protocol: Prostacyclin is unstable at room temperature in aqueous medium, having a half-life of approximately 10 mins., but its anti-aggregatory activity can be preserved for several days by dissolving the substance in aqueous alkali or in dry acetone and storing at -20° C. […] Prostacyclin also interrupts and reverses the presence of platelet aggregation.
The anti-aggregatory activity of the extracted Prostacyclin disappeared on bioling (15 seconds) or on standing at 22° C. for 20 minutes. The anti-aggregatory activity of Prostacyclin could be preserved for several days by dissolving the substance in dry acetone and storing at -20° C.

[3] = system: isolated hearts from rabbits; test: Isolated hearts perfused at constant flow rate by the Langendorf technique; conditions: rabbit hearts
blood pressure = test: Blood pressure and heart rate in normotensive anaesthetised rats; type: in vivo; conditions: injected intravenously and intra-aortically
Protocol: Prostacyclin was injected intravenously and intra-aortically into normotensive anaethetised rats and the blood pressure and heart rate recorded.

strips of rabbit aorta = test: Contraction of rabbit aorta strips (cascade superfusion bioassay)
Protocol: Aortic microsomal powder (5 mg) was incubated with 1 μg of prostalgandin endoperoxide (PGG2 or PGH2) in 0.05 M Tris buffer (pH 7.5) (1 ml.) for 2 minutes at 22° C. Enzyme activity was estimated by direct bioassay of the incubation mixture. After incubation of 2 minutes at 22° C. all prostaglandin endoperoxide activity was lost indicated by a lack of contraction of rabbit aorta strips when assayed by the cascade superfusion technique of Vane (Br. J. Pharmacy. 23, 369-373, 1964 indicating 100% conversion of PGG2 or PGH2.

[4] = system: human platelet rich plasma (PRP); test: Aggregation of platelets in fresh human platelet rich plasma, Born aggregometer; type: cell-based
Protocol: Aggregation of platelets in 1 ml. of fresh human platelet rich plasma (PRP) was monitored in a Born aggregometer. An immediate anti-aggregatory effect of the fresh reaction mixture of Example 1 of aortic microsomes with PGH2 or PGG2 was observed. The lowest anti-aggregatory concentration was obtained with samples containing 0.5-5 ng. Prostacyclin/ml.

[5] = system: gastric lesions induced by indomethacin; test: Gastric lesions induced in rats by indomethacin; type: in vivo; conditions: doses from 62.5 to 250 μg/kg, subcutaneous injection
[6] = system: strips of coeliac and mesenteric arteries; test: Relaxation of strips of coeliac and mesenteric arteries; parameters: species or system rabbit
[7] = system: rabbit aorta, rabbit coeliac artery, rat stomach strip and rat colon; test: Profile of biological activity on isolated tissues
Protocol: 5.xi.-Iodo-9-deoxy-6.xi., 9α-epoxyprostaglandin F1α methyl ester (500 mg) was stirred with methanolic NaOMe prepared from Na (0.23 g., 10 equivs.) and MeOH (3.5 ml.) under N2 at room temperature overnight; 1N aq. NaOH (2.5 ml.) was added to the yellow reaction solution to bring about hydrolysis of the ester moiety and, after 2 hours, the methanol was evaporated in vacuo at room temperature. The residual aqueous solution gave rise spontaneously to a mass of colourless fine needles of the desired sodium salt (formula (I): R=Na) which was cooled (0°), collected, washed sparingly with 1N aq. NaOH, air-dried, and stored in a stoppered tube; this salt (383 mg.) had max (KBr disc) 1692 cm^-1 [drawing 4] and twenty ^13 C resonances only were observed (at 182.7 (C-1), 158.2 (C-6), 140.0 and 134.3 (C-13, 14), 100.7(C-5), 87.5(C-15), 80.6 and 75.5(C-9, 11), 58.0(C-12), 49.0, 45.8, 42.4, 41.9, 37.5, 35.8 (C-18), 31.6., 29.9, 29.3, 26.7(C-19), and 18.4(C-20) ppm from TMS in DMSO-d6). The product, sodium (5Z)- 5,6-didehydro-9-deoxy-6,9α-epoxyprostaglandin F1α (syn. sodium prostacyclin), thus obtained completed inhibited arachidonic acid-induced platelet aggregation (human platelet-rich plasma) at 1 ng./ml. and its profile of biological activity on the rabbit aorta, rabbit coeliac artery, rat stomach strip and rat colon conformed with that of sodium prostacyclin obtained by biosynthesis. […]

Row | SMILES | lowest dose at which relaxation can be seen [1] [nanograms per 5 ml bath] | anti-aggregatory activity after boiling ([2]; boiling, 15 seconds, extracted Prostacyclin) | time for which anti-aggregatory activity is preserved on storage ([2]; dissolved in dry acetone (b5: or aqueous alkali), stored at -20° C.) | half-life ([2]; room temperature, aqueous medium) [min] | anti-aggregatory activity after standing ([2]; standing at 22° C. for 20 minutes, extracted Prostacyclin) | effect on coronary vessels [3] | vasodepressor potency relative to PGE2 (blood pressure) [times] | effect on strips of rabbit aorta (strips of rabbit aorta) | minimal effective concentration ([4]; Platelet, fresh reaction mixture of aortic microsomes with PGH2 or PGG2, 1 ml human PRP, read-out: lowest anti-aggregatory concentration) [µg/mL] | effect on platelet aggregation induced by arachidonic acid and PGG2 ([4]; diethyl ether extracts) | anti-aggregatory potency relative to PGD2 ([4]; times more potent than PGD2, on average) | anti-aggregatory potency relative to PGE1 ([4]; times more potent than PGE1, on average) | effect on formation of gastric lesions [5] | effect on strips of coeliac and mesenteric arteries [6] | potency compared with PGE2 on coeliac and mesenteric artery strips [6] | stability in water at acid pH ([2]; water, acid pH) | profile of biological activity compared with sodium prostacyclin obtained by biosynthesis [7] | IC100 ([4]; arachidonic acid-induced, human platelet-rich plasma, read-out: concentration giving complete inhibition of arachidonic acid-induced platelet aggregation) [µg/mL]
1 | CCCCC[C@H](O)/C=C/[C@@H]1[C@H]2C/C(=C/CCCC(=O)O)O[C@H]2C[C@H]1O [Prostacyclin, (5Z)-5,6-didehydro-9-deoxy-6,9α-epoxyprostaglandin F1α] | 20 | disappeared | several days | ~10 | disappeared | produced coronary vasodilation | 5 | does not contract | 0.0005 to 0.005 | inhibited | 5-20 times | 10-40 times | inhibit the formation of gastric lesions | relaxed | less potent than PGE2 | – | – | –
2 | CCCCC[C@H](O)/C=C/[C@@H]1[C@H]2C/C(=C/CCCC(=O)O)O[C@H]2C[C@H]1O [sodium prostacyclin, sodium (5Z)-5,6-didehydro-9-deoxy-6,9α-epoxyprostaglandin F1α] | – | – | – | – | – | – | – | – | – | – | – | – | – | – | – | instability | conformed | 0.001
